# According to patent publication US9464092B2, “Transient protection of normal cells during chemotherapy” (G1 Therapeutics, Inc., priority 2013, dated 2016):
# Tests used:
# [1] = system: human renal proximal tubule cells; experiment: γ-H2AX assay in renal proximal tubule cells with cisplatin; assay type: cell-based; conditions: 10 nM-1 uM with 25 uM cisplatin
# Method: (§1) Normal renal proximal tubule epithelial cells were obtained from American Type Culture Collection (ATCC, Manassas, Va.). Cells were grown in an incubator at 37° C. in a humidified atmosphere of 5% CO2 in Renal Epithelial Cell Basal Media (ATCC) supplemented with Renal Epithelial Cell Growth Kit (ATCC) in 37° C. humidified incubator. […] For the γ-H2AX assay, cells were fixed, permeabilized, and stained with anti-γ-H2AX as per the γ-H2AX Flow Kit (Millipore) and quantitated by flow cytometry. Data was analyzed using FlowJo 2.2 software developed by TreeStar, Inc. Caspase 3/7 activation was measured using the Caspase-Glo 3/7 Assay System (Promega, Madison, Wis.) by following the manufacturer's instructions.
# blood cell counts = experiment: 5FU-induced myelosuppression, repeated cycles; assay type: in vivo, C57Bl/6 mice; conditions: 150 mg/kg oral before 5FU 150 mg/kg i.p., every 21 days for 3 cycles
# Description: This was repeated every 21 days for 3 cycles. Blood samples were taken for hematology analysis on Day 10 of Cycles 1-3.
# [2] = system: A2058 cells (CDK4/6-independent cell line); experiment: Cell cycle arrest by propidium iodide flow cytometry, A2058; assay type: cell-based, human; conditions: 300 nM, 24 hours
# Description: To test the ability of Cdk4/6 inhibitors to induce a clean G1-arrest, a cell based screening method was used consisting of two Cdk4/6-dependent cell lines (tHS68 and WM2664; Rb-positive) and one Cdk4/6-independent (A2058; Rb-negative) cell line. […] At the conclusion of the experiment, cells were harvested, fixed, and stained with propidium iodide (a DNA intercalator), which fluoresces strongly red (emission maximum 637 nm) when excited by 488 nm light. Samples were run on Dako Cyan flow cytometer and >10,000 events were collected for each sample. Data were analyzed using FlowJo 2.2 software developed by TreeStar, Inc.
# [3] = system: renal proximal tubule epithelial cells; experiment: Caspase 3/7 activation in renal proximal tubule epithelial cells with cisplatin; assay type: cell-based, human; conditions: 30 nM-1 uM with cisplatin 25 uM, 50 uM, or 100 uM
# Method: Normal renal proximal tubule epithelial cells were obtained from American Type Culture Collection (ATCC, Manassas, Va.). Cells were grown in an incubator at 37° C. in a humidified atmosphere of 5% CO2 in Renal Epithelial Cell Basal Media (ATCC) supplemented with Renal Epithelial Cell Growth Kit (ATCC) in 37° C. humidified incubator. […] Caspase 3/7 activation was measured 24 hours later using the Caspase-Glo 3/7 Assay System (Promega, Madison, Wis.) by following the manufacturer's instructions.
# as §1
# [4] = system: RB-negative SCLC cell lines (H69, H82, H209, H345, NCI417, or SHP-77); experiment: EdU proliferation, RB-negative SCLC cell lines; conditions: 24 hours
smiles,measurement,setting,value
CN1CCN(c2ccc(Nc3ncc4cc5n(c4n3)C3(CCCCC3)CNC5=O)nc2)CC1 [Compound T],DNA damage as measured by γ-H2AX formation,[1],attenuated DNA damage
same,myelosuppression after repeated 5FU cycles,blood cell counts,reduced the myelosuppression on Day 10 of the third cycle
same,effect on S-phase peak,[2],does not cause a loss of the S-phase peak
same,caspase 3/7 activation,[3],dose-dependent reduction in caspase 3/7 activation
same,"effect on proliferation (EdU, percent of cells in S-phase)",[4],does not affect the growth of the Rb-negative cell lines
